These results are taken from patent US20190314379A1, “METHODS OF USING CANNABINOID CB2 RECEPTOR AGONIST COMPOSITIONS TO SUPPRESS AND PREVENT OPIOID TOLERANCE AND WITHDRAWAL IN A SUBJECT” (Indiana University Research and Technology Corporation, priority 2018, published 2019).

The structures appear in SMILES notation. “Also recorded” adds a separate entry of the source.

Data set [1] deals with paclitaxel-induced mechanical allodynia. Kind of data set: Paclitaxel-induced mechanical allodynia (electronic von Frey). Type of data set: in vivo, mouse. The following applies: 10 mg/kg per day i.p.×12 days. Here is the method:
(§1) In all studies, the experimenter was blinded to the treatment condition, and mice were randomly assigned to experimental conditions. Paclitaxel (4 mg/kg i.p.) was administered four times on alternate days (cumulative dose, 16 mg/kg i.p.) to induce neuropathic pain as described previously by our group (Deng et al., 2015). Control mice received an equal volume of cremophor-vehicle. Development of paclitaxel-induced allodynia was assessed on day 0, 4, 7, 11, and 14.
(§2) Effects of pharmacologic manipulations were assessed at 30 minutes after drug administration during the maintenance phase of paclitaxel-induced neuropathy (i.e., beginning day 18-20 after initial paclitaxel injection).
(§3) In experiments 2 and 3, pharmacologic manipulations were performed once daily for 12 consecutive days in each of the two phases of chronic treatment. Four days separated phase 1 and phase 2 chronic dosing in all studies comprising two phases of chronic dosing. Experiments 2 and 3 were performed concurrently using overlapping cohorts that were tested with a single vehicle (phase 1), vehicle (phase 2) group.
(§4) We then assessed the antiallodynic efficacy of chronic systemic administration of vehicle or morphine (10 mg/kg per day i.p.×12 days) administered during phase 2 in the same animals. Responsiveness to mechanical and cold stimulation was evaluated on treatment days 1, 4, 8, and 12 during phase 1 and on treatment days 16, 19, 23, and 27 during phase 2 (i.e., phase 2 started on day 16).
(§5) In experiment 4, we evaluated the impact of coadministration of morphine (10 mg/kg i.p.×12 days) with a submaximal dose of LY 2828360 (0.1 mg/kg per day i.p.×12 days) in WT and CB2 KO mice.
Paw withdrawal thresholds (grams) to mechanical stimulation were measured in duplicate for each paw using an electronic von Frey anesthesiometer supplied with a 90-g probe (model Alemo 2390-5; IITC, Woodland Hills, Calif.) as described previously. Mice were placed on an elevated metal mesh table and allowed to habituate under individual, inverted plastic cages to the testing platform for at least 20 minutes until exploratory behavior had ceased. Alter the habituation period, a force was applied to the midplantar region of the hind paw with a semiflexible tip connected to the anesthesiometer. Mechanical stimulation was terminated when the animal withdrew its paw, and the value of the applied force was recorded in grams. Mechanical paw withdrawal thresholds were obtained in duplicate for each paw and are reported as the mean of duplicate determinations from each animal, averaged across animals, for each group.

The subject of data set [2] is paclitaxel-induced cold allodynia. The data set can be described thus: Paclitaxel-induced cold allodynia (acetone). Format: in vivo, mouse. The following applies: 10 mg/kg per day i.p.×12 days. Here is the method:
as §1, §2, §3, §4, §5
Response time (seconds) spent attending to (i.e., elevating, licking, biting, or shaking) the paw stimulated with acetone (Sigma-Aldrich) was measured in triplicate for each paw to assess cold allodynia as previously published. An acetone bubble (approximately 5 to 6 p.1) formed at the end of a blunt 1-ml syringe hub was gently applied to the plantar surface of the hind paw. Care was taken not to apply mechanical stimulation to the hind paw with the syringe itself. The total time the animal spent attending to the acetone-stimulated paw (i.e., elevation, shaking, or licking) was recorded over 1 minute after acetone application. Acetone was applied three times to each paw with a 3-minute interval between applications. Values for each animal were calculated as the mean of six determinations of acetone responsiveness derived from each mouse.

For data set [3], the system named is naloxone-precipitated opioid withdrawal. The data set can be described thus: Naloxone-precipitated opioid withdrawal in paclitaxel-treated mice. Type of data set: in vivo, mouse. Here is the method:
Alter the last injection of morphine (on day 28 for two-phase treatments, on day 13 for coadministration treatment), we challenged WT or CB2KO mice from experiments 2, 3, and 4 with vehicle, followed 30 minutes later by naloxone (5 mg/kg i.p.) to precipitate opioid receptor-mediated withdrawal. Mice were video-recorded for subsequent scoring of withdrawal-like behaviors for a 30-minute interval after challenge with vehicle or naloxone.
Mice were video-taped, and the number of jumps was scored in 5-minute intervals for a total observation period of 30 minutes after challenge with either saline or naloxone (5 mg/kg i.p.).

In data set [4] the test system is morphine analgesia and antinociceptive tolerance. The following applies: rats, with morphine; cited from earlier work.
For data set [5], the target named is T1, mouse CB2 receptors (Mus musculus, UniProt P47936).
T1 construct: expressed in transfected cells
T1 sequence (P47936 whole entry): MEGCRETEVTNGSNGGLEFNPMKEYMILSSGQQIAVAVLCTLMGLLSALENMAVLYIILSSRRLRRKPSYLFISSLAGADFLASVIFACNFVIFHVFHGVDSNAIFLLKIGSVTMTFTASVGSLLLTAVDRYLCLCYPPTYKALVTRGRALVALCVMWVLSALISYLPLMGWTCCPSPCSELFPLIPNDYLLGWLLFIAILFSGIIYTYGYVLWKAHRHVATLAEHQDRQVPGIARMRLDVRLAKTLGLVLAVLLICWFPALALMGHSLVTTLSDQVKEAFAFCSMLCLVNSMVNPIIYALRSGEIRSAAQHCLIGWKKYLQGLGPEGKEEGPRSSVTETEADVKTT
The data set can be described thus: Arrestin recruitment (PathHunter CHO K1CNR2, enzyme complementation). Format: cell-based. A general note: Activated receptors often draw arrestin, which recruitment assays turn into a signal.

Data set [6] addresses T1, mouse CB2 receptors. The data set can be described thus: On-cell western for receptor internalization, HEK mCB2. Type of data set: cell-based.
For data set [7], the target named is T1, mouse CB2 receptors. The data set can be described thus: Forskolin-stimulated cAMP accumulation (cyclase), HEK mCB2. Type of data set: cell-based. A general note: Cyclic AMP is a second messenger, typically raised through Gs and lowered through Gi signalling.
Data set [8] addresses T1, mouse CB2 receptors. Kind of data set: Phosphorylated ERK1/2 detection, HEK mCB2. Format: cell-based.
For data set [9], the target named is T2, human CB2 (Homo sapiens, UniProt P34972). Kind of data set: On-cell western for receptor internalization, HEK hCB2. Format: cell-based. Details: expressed in transfected cells. The following applies: read-out: Internalization Emax.
T2 sequence (P34972 whole entry): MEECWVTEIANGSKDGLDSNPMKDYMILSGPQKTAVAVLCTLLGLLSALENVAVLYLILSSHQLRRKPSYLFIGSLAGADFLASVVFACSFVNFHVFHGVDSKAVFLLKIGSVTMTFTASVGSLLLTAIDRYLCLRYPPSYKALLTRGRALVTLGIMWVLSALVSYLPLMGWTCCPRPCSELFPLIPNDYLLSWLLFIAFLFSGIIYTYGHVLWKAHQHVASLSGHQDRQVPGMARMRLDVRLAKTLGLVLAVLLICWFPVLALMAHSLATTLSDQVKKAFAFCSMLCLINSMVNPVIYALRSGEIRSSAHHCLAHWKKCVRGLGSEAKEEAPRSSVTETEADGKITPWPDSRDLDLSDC
Data set [10] concerns the target T2, human CB2. Kind of data set: Forskolin-stimulated cAMP accumulation (cyclase), HEK hCB2. Format: cell-based. Further details: expressed in transfected cells; time of inhibition of forskolin-stimulated cAMP accumulation: dose or concentration left out as unconfirmed.
Data set [11] has as its target T2, human CB2. Kind of data set: Phosphorylated ERK1/2 detection, HEK hCB2. Further details: expressed in transfected cells. Format: cell-based.
Data set [12] addresses T1, mouse CB2 receptors. The data set can be described thus: Myo-inositol phosphate-1 (IP1) accumulation, HEK mCB2. To be noted: via mouse CB2. Type of data set: cell-based.
Where [13] appears, read: WT mice, days 16-27, 10 mg/kg/day.

In the case of `CN1CC[C@]23c4c5ccc(O)c4O[C@H]2[C@@H](O)C=C[C@H]3[C@H]1C5` [morphine, reference compound], the “mechanical allodynia, chronic phase 1 morphine” value is “completely absent on day 8 and day 12” in data set [1] (CB2KO mice); “tolerance developed to the antiallodynic effects of morphine” in [1] (WT mice, days 4, 8, 12). Also, in data set [1] (setting [13]), the “mechanical allodynia, phase 2 morphine after phase 1 vehicle” value was “only suppressed paclitaxel-induced mechanical and cold allodynia on day 16; also recorded: no longer efficacious”. Moreover, the “cold allodynia, chronic phase 1 morphine” value in data set [2] (CB2KO mice) was “completely absent on day 8 and day 12”; in [2] (WT mice, days 4, 8, 12), “tolerance developed to the antiallodynic effects of morphine”. Moreover, the “cold allodynia, phase 2 morphine after phase 1 vehicle” value in data set [2] (setting [13]) was “only suppressed paclitaxel-induced mechanical and cold allodynia on day 16; also recorded: no longer efficacious”. For the same molecule, the “naloxone-precipitated jumping, Veh (1)-Mor (2) vs Veh (1)-Veh (2)” value in data set [3] (paclitaxel-treated CB2KO mice) was “precipitated jumping”. Besides, the “number of naloxone-precipitated jumps, vehicle (1)-morphine (2) vs vehicle (1)-vehicle (2)” value in data set [3] (paclitaxel-treated WT mice, morphine 10 mg/kg per day×12 days, naloxone 5 mg/kg i.p.) is given as “exhibited a greater number of jumps”. Further, in data set [3] (paclitaxel-treated WT mice, morphine in phase 1), the “naloxone-precipitated withdrawal, Mor (1)-LY (2) vs Veh (1)-Veh (2)” value is on record as “did not precipitate withdrawal”.

On to `CCCCCOc1c(OC)ccc2cc(C(=O)NCc3ccc4c(c3)OCO4)c(=O)[nH]c12` [JTE907], for which the “morphine analgesia and morphine antinociceptive tolerance” value in data set [4] was “decreased morphine analgesia and attenuated morphine antinociceptive tolerance”.

Usually EC50 stands for the concentration needed to bring the measured effect to its halfway point. Turning to `CCCCCCC(C)(C)c1ccc([C@@H]2C[C@H](O)CC[C@H]2CCCO)c(O)c1` (relative stereo) [CP55940, reference compound], the 50% effective concentration (EC50) at mouse CB2 receptors [5] was 2.3 nM; at mouse CB2 receptors [6], 7.4 nM; at mouse CB2 receptors [7], 6.6 nM; on mouse CB2 receptors [8] (pERK1/2 EC50, mouse CB2, 05 mins incubation), 10.5 nM; on mouse CB2 receptors [8] (pERK1/2 EC50, mouse CB2, 20 mins incubation) it was 1.5 nM. Moreover, on mouse CB2 receptors [5] (CHO cells expressing mCB2, 90-minute drug incubation), the arrestin recruitment entry is “recruited arrestin in a concentration-dependent manner”. Further, the Emax on mouse CB2 receptors [5] (read-out: Arrestin Emax) worked out at 125%; at mouse CB2 receptors [6] (read-out: Internalization Emax) it was 49.1%; at mouse CB2 receptors [7] (read-out: Cyclase Emax), 52.8%; on mouse CB2 receptors [8] (read-out: pERK1/2 Emax, mouse CB2, 05 mins incubation) it was 136%; at mouse CB2 receptors [8] (read-out: pERK1/2 Emax, mouse CB2, 20 mins incubation) it was 20.3%; at human CB2 [9] it was 33.9%. Besides, the Emax at human CB2 [10] (read-out: Cyclase Emax) came out at 59.6%; on human CB2 [11] (read-out: pERK1/2 Emax, human CB2, 05 mins incubation) it was 95.7%; on human CB2 [11] (read-out: pERK1/2 Emax, human CB2, 30 mins incubation) it was 49.4%. For the same molecule, the receptor internalization entry on mouse CB2 receptors [6] (HEK mCB2) is “concentration dependently internalized the mCB2”. In addition, the “forskolin-induced cAMP levels” value on mouse CB2 receptors [7] (HEK mCB2, 1 μM final concentration, 5 minutes) was “attenuated forskolin-induced cAMP levels; also recorded: stronger inhibitory effect than AM1710”. On mouse CB2 receptors [7] (HEK mCB2, compound alone), the “cAMP levels in the absence of forskolin” value is given as “alone did not change cAMP levels”. Besides, at mouse CB2 receptors [7] (mCB2, 1 μM, PTX 300 ng/ml overnight), the “forskolin-stimulated cAMP after PTX treatment” value is listed as “modestly increased cAMP accumulation at 5 minutes; also recorded: abolished the decrease in forskolin-stimulated cAMP”. The “time of efficacious inhibition of forskolin-stimulated adenylyl cyclase” value on mouse CB2 receptors [7] (mCB2, 1 μM, time course) is roughly 5 min. Moreover, the “inhibition of forskolin-stimulated cAMP accumulation, concentration response” value against mouse CB2 receptors [7] (mCB2, 5 minutes) was “potently and efficaciously inhibited cAMP accumulation”. Moreover, the “ERK1/2 phosphorylation time course” value is “increased phosphorylated ERK1/2 at 5-, 10-, 30-, and 40-minute time points” on mouse CB2 receptors [8] (mCB2, 1 μM); “efficaciously increased ERK1/2 phosphorylation after 5 minutes, 10 minutes, and 30 minutes” on human CB2 [11] (hCB2, 1 pM). For the same molecule, the “ERK1/2 phosphorylation after PTX treatment” value is given as “abolished the CP55940-mediated phosphorylation of ERK1/2 at the 5-minute time point, but it was retained at the 40-minute time point” at mouse CB2 receptors [8] (mCB2, 1 μM, PTX) and “retained” on human CB2 [11] (hCB2, 1 pM, PTX). For the same molecule, the “ERK1/2 phosphorylation, concentration response” value on mouse CB2 receptors [8] (mCB2, 5 minutes) was “concentration dependency increased ERK1/2 phosphorylation”; on mouse CB2 receptors [8] (mCB2, 20 minutes), “decreased ERK1/2 phosphorylation”. For the same molecule, the “effect on ERK1/2 phosphorylation in presence of SR144528” value at mouse CB2 receptors [8] (mCB2, 20 minutes, SR144528 1 μM) is given as “blocked”. In addition, on human CB2 [10] (HEK hCB2), the “cAMP levels, compound alone (no forskolin)” value is “alone did not change the cAMP levels”. In addition, the “duration of decrease in cAMP” value on human CB2 [10] (HEK hCB2) is given as “up to 10 minutes”. Moreover, the “inhibition of forskolin-induced cAMP levels, time course” value against human CB2 [10] (HEK hCB2, 1 μM final concentration) was “produced early inhibition of forskolin-induced cAMP levels at 5 minutes”. The “inhibition of forskolin-stimulated cAMP after PTX pretreatment” value at human CB2 [10] (HEK hCB2, 1 μM final concentration, PTX) is recorded as “blocked the inhibition of forskolin-stimulated cAMP”. For the same molecule, the “inhibition of forskolin-stimulated cAMP accumulation” value at human CB2 [10] (hCB2, 5 minutes of treatment) was “potent and efficacious”. Also, on human CB2 [10] (hCB2, time course), the “time of inhibition of forskolin-stimulated cAMP accumulation” value came out at 5 min. The “inhibition of cAMP accumulation after PTX pretreatment” value on human CB2 [10] (hCB2, time course, PTX) is “abolished this effect”. Besides, the “stimulated phosphorylation of ERK1/2 in presence of SR144528” value on human CB2 [11] (hCB2, SR144528 (1 pM)) is on record as “completely blocked”.

On to `Cc1c(C(=O)c2cccc3ccccc23)c2cccc3c2n1[C@H](CN1CCOCC1)CO3` [WIN55212-2, reference compound], for which the IP1 accumulation entry on mouse CB2 receptors [12] is given as “increased IP1 accumulation”.
